Source: EP0316212B1 (priority 1987, dated 1989)

Experiments:
[1] = molecular target: reverse transcriptase du HIV1 (Human immunodeficiency virus type 1 group M subtype B, UniProt P04585); experiment: Reverse transcriptase activity of HIV1 incubated with NP derivatives, tested immediately; type: biochemical; conditions: témoin virus 11924
Description: (§1) La technique de culture et de titrage de la reverse-transcriptase du HIV est rappelée ci-après : Des lymphocytes humains, préalablement activés par la PHA (phytohémagglutinine) sont incubés dans un milieu nutritif (RPMI 1640 + sérum de veau foetal + antibiotiques + β-mercaptoéthanol 10⁻⁵M + 2»g/ml polybrene + sérum anti-interféron 1/2000 + IL2 10%). Après centrifugation, le culot cellulaire est mis en présence du HIV1 (10.000 cpm/10⁶ cellules) pendant 1 heure à 37°. Après lavage et centrifugation, les cellules sont resuspendues dans du milieu nutritif. Les surnageants de culture cellulaire sont suivis pendant plusieurs jours pour leur activité reverse transcriptase. Ils sont centrifugés 7 minutes à 95000 tours et le culot est lysé par du Triton® 0,1% (produit Touzart et Matignon). Un mélange réactionnel est ajouté (Tris, DTT (dithiothreitol), MgCl₂, KCl, PolyA, Oligo dT, ³HTTP, H₂O) et après 1 heure d'incubation à 37°C, la réaction est arrêtée avec du pyrophosphate de sodium et de l'acide nucléique de levure est ajouté pour aider la précipitation. De l'acide trichloracétique (TCA) est ajouté et la solution est laissée 15 minutes à 4°C. Après filtration sous vide avec des filtres millipores 0.45 »m et plusieurs lavages avec du TCA (0.5%), on procède au rinçage à l'éthanol, au sèchage en étuve 37° et enfin au comptage.
Le HIV1 est incubé 1 heure à 37° en présence d'AcN (D23, 621, N5-12), d'anticorps anti-NP (TNP11) ou en présence des dérivés NP (DNP-glycine et DNP-lysine). L'activité reverse transcriptase du HIV1 est testée immédiatement (cas des dérivés DNP-glycine et DNP-lysine). Alternativement, des lymphocytes humains sont infectés par le HIV1 préincubé avec les produits à tester, et la culture cellulaire est observée pendant 3 semaines par titrage de la reverse transcriptase. Durant cette période les cultures des lymphocytes humains ne contiennent pas d'anticorps ni d'antigène.

HIV1 = HIV1 infection of human lymphocytes preincubated with antibodies or NP derivatives, reverse transcriptase in supernatants; type: cell-based; conditions: for activité reverse transcriptase (surnageants de culture): dérivés NP, concentration not given
Description: as §1
Les lymphocytes humains, préalablement activés par la PHA, sont incubés en présence des AcN, des anticorps anti-NP et des dérivés NP (DNP-glycine, DNP-lysine) pendant une nuit à 37°C. Le lendemain, le culot cellulaire est mis en présence du HIV1 pendant 1 heure à 37°C au bain-marie et les cellules sont resuspendues dans du milieu nutritif en présence des produits à tester. Les surnageants de culture sont testés pour l'activité reverse transcriptase pendant 3 semaines.

N[C@@H](CCCCNc1ccc([N+](=O)[O-])cc1[N+](=O)[O-])C(=O)O [DNP-lysine, DNP-Lysine] was tested, and the Activité reverse transcriptase ([1]; 10^-3M) was 4652, the Activité reverse transcriptase ([1]; 10^-6M) was 3932 and the Activité reverse transcriptase ([1]; 10^-7M) was 7240. The Activité reverse transcriptase ([1]; 10^-9M) was 9262, the “activité reverse transcriptase (surnageants de culture)” value (HIV1; 3 jours après l'infection, témoin virus 562) was 936 and the “activité reverse transcriptase (surnageants de culture)” value (HIV1; 6 jours après l'infection, témoin virus 1274) was 958. For the same compound, the “activité reverse transcriptase (surnageants de culture)” value (HIV1; 10 jours après l'infection, témoin virus 94474) was 1102, the “activité reverse transcriptase (surnageants de culture)” value (HIV1; 13 jours après l'infection, témoin virus 63944) was 1466 and the “activité reverse transcriptase (surnageants de culture)” value (HIV1; 18 jours après l'infection, témoin virus 73368) was 958. The “activité reverse transcriptase (surnageants de culture)” value (HIV1; 20 jours après l'infection, témoin virus 26840) was 1268 and the “activité reverse transcriptase / infectivité virale par rapport au témoin virus (result in words)” value (HIV1; lymphocytes incubés avec les produits) was “peuvent conduire à une inhibition totale de l'infectivité virale”.
